pIC50: −log10 of the molar value. Read-outs that look alike come from different tables or passages of the source.
Legend:
[1] = molecular target: T1, interaction between GMPPNP-bound recombinant K-Ras4B G12C mutant protein and cRAF RAS-binding domain (cRAF-RBD) (Homo sapiens, UniProt P01116, G12C); test: Inhibitory activity on interaction between KRAS G12C and cRAF (Alpha technology)
T1 construct: His-tag (N)
How it was run: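 Alpha signal measured 1.5 h after adding cRAF-RBD (aa 50-132) and detection reagents to GMPPNP-bound KRAS G12C (aa 1-169) pretreated 1 h at 25° C with compound (pH 7.5 buffer). 0% inhibition = DMSO, 100% = GDP-loaded KRAS; IC50 by curve fit.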

[2] = system: MIA PaCa-2 cells; test: Growth inhibition activity on KRAS-G12C mutant cell line (CellTiter-Glo 3D); type: cell-based, human; details: MIA PaCa-2, 3-day culture with compound
How it was run: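 IC50 (nM) derived from inhibition of luminescence (CellTiter-Glo 3D) relative to compound-free wells. Cells were seeded in U-bottom plates, grown 1 day, then exposed to compound for 3 days at 37 °C with 0.2% final DMSO.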

[3] = IC50, GMPPNP-bound KRAS G12C incubated with compound 25° C. 1 hour, Table 2-1
[4] = Homo sapiens, MIA PaCa-2, 72 h, Table 3-1
[5] = GMPPNP-bound KRAS G12C incubated with compound 25° C. 1 hour, Table 2-1, read-out: IC50
[6] = IC50, GMPPNP-bound KRAS G12C incubated with compound 25° C. 1 hour, Table 2

T1 sequence (P01116 with tags, fused parts or gaps isoform P01116-2 G12C): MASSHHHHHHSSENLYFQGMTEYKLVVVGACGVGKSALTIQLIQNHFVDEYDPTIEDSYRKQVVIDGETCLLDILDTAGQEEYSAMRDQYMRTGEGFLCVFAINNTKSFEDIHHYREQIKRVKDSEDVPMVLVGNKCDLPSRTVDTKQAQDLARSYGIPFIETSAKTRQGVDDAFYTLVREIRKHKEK

| SMILES | pIC50 [2, 4] | pIC50 [1, 5] | also measured |
| --- | --- | --- | --- |
| Cc1cc2c(nc(C)n2C)c2c1-c1cccc3c(C(=O)c4cc(F)c(NC(=O)/C=C/CN[C@H]5C[C@H]6CC[C@@H]5O6)c(F)c4)cn(c13)CCN2C [Example 136] | 7.44 |  | pIC50 [1, 3]: 7.58 |
| Cc1nc2c3c(c(C(F)(F)F)cc2n1C)-c1cccn2c(C(=O)c4cc(F)c(NC(=O)/C=C/CNC5(C)CCOC5)c(F)c4)cc(c12)CCO3 (single isomer, unassigned) [Example 52] | 8.84 | 8.34 |  |
| CN1CCc2cc(C(=O)c3cc(F)c(NC(=O)/C=C/CNCCO)c(F)c3)n3cccc(c23)-c2c(C(F)(F)F)cc3c(ncn3C)c21 [Example 96, (E)-N-(4-(9,12-dimethyl-7-(trifluoromethyl)-9,12,13,14-tetrahydro-imidazo[4″,5″:5′,6′]benzo-[1′,2′:2,3]azocino[4,5,6-hi]indolizine-2-carbonyl)-2,6-difluorophenyl)-4-((2-hydroxyethyl)amino)but-2-enamide] | 7.84 | 7.51 |  |
| CN1CCc2cc(C(=O)c3cc(F)c(NC(=O)/C=C/CN[C@@H]4CCOC4)c(F)c3)n3cccc(c23)-c2c(C(F)(F)F)cc3c(ncn3C)c21 (single isomer, unassigned) [Example 89] | 8.36 | 7.80 |  |
| CO[C@H]1CC[C@H](NC/C=C/C(=O)Nc2c(F)cc(C(=O)c3cc4c5c(cccn35)-c3c(Cl)cc5c(nc(C)n5C)c3OCC4)cc2F)CC1 [Example 53] | 7.50 | 7.65 |  |
| COCc1nc2c3c(c(OC)cc2n1C)-c1cccn2c(C(=O)c4cc(F)c(NC(=O)/C=C/CNC5(C)CC5)c(F)c4)cc(c12)CCN3C [Example 174, (E)-N-(2,6-difluoro-4-(7-methoxy-10-(methoxymethyl)-9,12-dimethyl-9,12,13,14-tetrahydroimidazo[4″,5″:5′,6′]benzo[1′,2′:2,3]azocino[4,5,6-hi]indolizine-2-carbonyl)phenyl)-4-((1-methylcyclopropyl)amino)but-2-enamide] | 8.13 | 8.13 |  |
| COCc1nc2c3c(c(C(F)(F)F)cc2n1C)-c1cccn2c(C(=O)c4cc(F)c(NC(=O)/C=C/CN[C@H]5CCOC5)c(F)c4)cc(c12)CCN3C (single isomer, unassigned) [Example 98] | 8.40 | 7.95 |  |
| CN1CCc2cc(C(=O)c3cc(F)c(NC(=O)/C=C/CN[C@H]4CCOC4)c(F)c3)n3cccc(c23)-c2c(C(F)(F)F)cc3[nH]cnc3c21 (atropisomer, axis not shown) [Example 218] | 7.85 | 7.57 |  |
| CN1CCc2cc(C(=O)c3cc(F)c(NC(=O)/C=C/CNC4(CO)CCCC4)c(F)c3)n3cccc(c23)-c2c(C(F)(F)F)cc3c(ncn3C)c21 [Example 109, (E)-N-(4-(9,12-dimethyl-7-(trifluoromethyl)-9,12,13,14-tetrahydro-imidazo[4″,5″:5′,6′]benzo-[1′,2′:2,3]azocino[4,5,6-hi]indolizine-2-carbonyl)-2,6-difluorophenyl)-4-((1-(hydroxymethyl)cyclo-pentyl)amino)but-2-enamide] | 7.71 | 7.61 |  |
| COCCn1c(COC)nc2c3c(c(OC)cc21)-c1cccn2c(C(=O)c4cc(F)c(NC(=O)/C=C/CNC5(C)CC5)c(F)c4)cc(c12)CCN3C (single isomer, unassigned) [Example 244] | 8.00 | 7.81 |  |
| CN1CCc2cc(C(=O)c3cc(F)c(NC(=O)/C=C/CN4[C@@H]5CC[C@H]4[C@H](O)C5)c(F)c3)n3cccc(c23)-c2c(C(F)(F)F)cc3c(ncn3C)c21 (single isomer, unassigned) [Example 206] | 7.99 | 7.81 |  |
| COc1cc2c(nc(C)n2C)c2c1-c1cccn3c(C(=O)c4cc(F)c(NC(=O)/C=C/CNC5CCCCC5)c(F)c4)cc(c13)CCN2C [Example 104, (E)-4-(cyclohexylamino)-N-(2,6-difluoro-4-(7-methoxy-9,10,12-trimeth-yl-9,12,13,14-tetrahydro-imidazo[4″,5″:5′,6′]benzo-[1′,2′:2,3]azocino[4,5,6-hi]indolizine-2-carbon-yl)phenyl)but-2-enamide] | 7.81 | 7.38 |  |
| CO[C@H]1CC[C@H](NC/C=C/C(=O)Nc2c(F)cc(C(=O)c3cn4c5c(cccc35)-c3c(C)cc5c(nc(C)n5C)c3OCC3(CC3)C4)cc2F)CC1 (single isomer, unassigned) [Example 21-2, (E)-N-(2,6-difluoro-4-(6′,8′,9′-trimethyl-8′H, 12′H,14′H-spiro[cyclopropane-1,13-imidazo[4″,5″:3′,4′]benzo[1′,2:8,9][1,5]oxazonino[7,6,5-hi]indole]-2′-carbonyl)phenyl)-4-(((1r,4t)-4-methoxycyclohexyl)amino)but-2-enamide] |  |  | pIC50 [1, 6]: 5.55; pIC50 ([2]; Table 3): 5.82 |
| Cn1cnc2c3c(c(C(F)(F)F)cc21)-c1cccn2c(C(=O)c4cc(F)c(NC(=O)/C=C/CN5C6COCC5C6)c(F)c4)cc(c12)CCO3 [Example 212, (E)-4-(3-oxa-6-azabicyclo-[3.1.1]heptan-6-yl)-N-(2,6-difluoro-4-(9-meth-yl-7-(trifluoromethyl)-13,14-dihydro-9H-imidazo-[4″,5″:5′,6′]benzo[1′,2′: 2,3]oxocino[4,5,6-hi]-indolizine-2-carbonyl)-phenyl)but-2-enamide] | 8.38 | 7.79 |  |
| COCc1nc2c3c(c(OC)cc2n1C)-c1cccn2c(C(=O)c4cc(F)c(NC(=O)/C=C/CN[C@H]5CCOC5)c(F)c4)cc(c12)CCN3C (single isomer, unassigned) [Example 171] | 7.87 | 8.20 |  |
| Cc1nc2c3c(c(C(F)(F)F)cc2n1C)-c1cccn2c(C(=O)c4cc(F)c(NC(=O)/C=C/CNC5(C)CC5)c(F)c4)cc(c12)CCO3 [Example 35] |  |  | pIC50 ([1]; GMPPNP-bound KRAS G12C incubated with compound 25° C. 1 hour, Table 2, read-out: IC50): 7.89; pIC50 ([2]; Homo sapiens, MIA PaCa-2, 72 h, Table 3): 7.85 |
| Cn1cnc2c3c(c(C(F)(F)F)cc21)-c1cccn2c(C(=O)c4cc(F)c(NC(=O)/C=C/CN5CC6COC(C6)C5)c(F)c4)cc(c12)CCO3 (stereo not shown) [Example 228, (E)-4-(6-oxa-3-azabicyclo-[3.2.1]octan-3-yl)-N-(2,6-difluoro-4-(9-methyl-7-(trifluoromethyl)-13,14-dihydro-9H-imidazo-[4″,5″:5′,6′]benzo[1′,2′: 2,3]oxocino[4,5,6-hi]-indolizine-2-carbonyl)-phenyl)but-2-enamide] | 7.45 | 7.49 |  |
| COCc1nc2c3c(c(C(F)(F)F)cc2n1C)-c1cccn2c(C(=O)c4cc(F)c(NC(=O)/C=C/CN[C@H]5CCOC5)c(F)c4)cc(c12)COC3 [Example 209, (S,E)-N-(2,6-difluoro-4-(10-(methoxymethyl)-9-methyl-7-(trifluoromethyl)-9,12-dihydro-14H-imidazo[4″,5″:3′,4′]benzo[1′,2′:6,7]oxocino[5,4,3-hi]indolizine-2-carbonyl)phenyl)-4-((tetrahydrofuran-3-yl)amino)but-2-enamide] | 7.73 | 7.33 |  |
| CO[C@H]1CC[C@H](NC/C=C/C(=O)Nc2c(F)cc(C(=O)c3cn4c5c(cccc35)-c3c(Cl)cccc3OCC4)cc2F)CC1 (single isomer, unassigned) [Example 1-2] |  |  | pIC50 [1, 6]: 6.74; pIC50 ([2]; Table 3): 6.80 |
| Cc1cc2c(ncn2C)c2c1-c1cccn3c(C(=O)c4cc(F)c(NC(=O)/C=C/CNC5(C)CC5)c(F)c4)cc(c13)CCN2C [Example 115, (E)-N-(2,6-difluoro-4-(7,9,12-trimethyl-9,12,13,14-tetrahydro-imidazo[4″,5″:5′,6′]benzo-[1′,2′:2,3]azocino[4,5,6-hi]indolizine-2-carbon-yl)phenyl)-4-((1-methyl-cyclopropyl)amino)but-2-enamide] | 7.21 | 7.41 |  |
| Cn1cnc2c3c(c(C(F)(F)F)cc21)-c1cccn2c(C(=O)c4cc(F)c(NC(=O)/C=C/CN5CC[C@H]5CF)c(F)c4)cc(c12)CCO3 [Example 175, (S,E)-N-(2,6-difluoro-4-(9-methyl-7-(trifluoro-methyl)-13,14-dihydro-9H-imidazo[4″,5″:5′,6′]-benzo[1′,2′:2,3]oxocino-[4,5,6-hi]indolizine-2-carbonyl)phenyl)-4-(2-(fluoromethyl)azetidin-1-yl)but-2-enamide] | 7.63 | 7.04 |  |
| CC(=O)C(C)(C)NC/C=C/C(=O)Nc1c(F)cc(C(=O)c2cn3c4c(cccc24)-c2c(C)cc4c(nc(C)n4C)c2N(C)CC3)cc1F [Example 85, (E)-N-(2,6-difluoro-4-(6,8,9,11-tetramethyl-8,11,12,13-tetrahydro-imidazo[4″,5″:5′,6′]benzo-[1′,2′:5,6][1,4]diazocino-[7,8,1-hi]indole-2-carbon-yl)phenyl)-4-(2-methyl-3-oxobutan-2-ylamino)but-2-enamide] | 7.51 |  | pIC50 [1, 3]: 7.22 |
| COCc1nc2c3c(c(OC)cc2n1C)-c1cccn2c(C(=O)c4cc(F)c(NC(=O)/C=C/CNC5(C)CC5)c(F)c4)nc(c12)CCN3C (single isomer, unassigned) [Example 181, (E)-N-(2,6-difluoro-4-(6-methoxy-9-(methoxy-methyl)-8,11-dimethyl-8,11,12,13-tetrahydro-1,2a,8,10,11-pentaaza-cycloocta[1,2,3-cd:5,4-e′]-diindene-2-carbonyl)phen-yl)-4-((1-methylcyclo-propyl)amino)but-2-en-amide] | 7.68 | 7.32 |  |

— patent publication US20240262842A1, “SMALL MOLECULE INHIBITORS OF KRAS G12C MUTANT” (Merck Sharp & Dohme LLC, priority 2021, published 2024)
